Laboratory results taken from patent US10874670B2, “Substituted fused heteroaromatic compounds as kinase inhibitors and the use thereof” (IMPACT THERAPEUTICS, INC., priority 2017, dated 2020).

How the values were obtained:
[1] = tested on: human colon cancer cell SW620; assay: MTT assay, growth of SW620 cells, compounds combined with CPT-11; assay type: cell-based; conditions: combined with CPT-11 (205 nM medium), 5 days, MTT
Method: Inhibitory effects of N,N-dimethyl-3-(4-(1-(tetrahydro-2H-pyran-4-yl)-[1,2,4]triazolo[4,3-a]quinoxalin-8-yl)phenoxy)propan-1-amine and its Analogues Combined with CPT-11 on the Growth of Human Colon Cancer Cell SW620 were Determined by MTT Assay
(§1) SW620 cells were digested by trypsinase, centrifuged at 800 rpm for 5 minutes, the supernatant was discarded, resuspended with fresh medium (RPMI 1640 medium+10% FBS) and counted. The cells were seeded into 96-well cell culture plate with appropriate cell density and incubated overnight in a 37° C. 5% CO2 incubator. The stock solutions of the tested compound and the reference compound AZD0156 were serially diluted to 8 concentrations by DMSO at the ratios of 1:3 and 1:10, respectively, the first concentration was 10 μM or 1 μM, and the last concentration was negative control of DMSO (0 μM, the final concentration of DMSO was 1%). 5 μL of each concentration was added to 120 μL of medium (25 times diluted) and mixed by shaking. The overnight cells were taken and the culture medium was removed, 195 μL of fresh medium containing 205 nM CPT-11 was added to each well, and 5 μL of diluted medium containing the corresponding concentration of the tested sample was added respectively, and the culture plate was then placed in the 5% CO2 cell culture incubator at 37° C. for 5 days. After removing the original solution, 100 pt of fresh serum-free DMEM medium containing MTT (0.5 mg/mL) was added to each well, the culture was continued. After 4 hours, the original solution was removed, 100 μL of DMSO was added into each well, the 96-well plates were shaken away from light for 10 minutes and placed in a multi-function reader to read the absorbance at the wavelength of 552/630/690 nm. GraphPad Prism 6.0 was used to analyze the data. The inhibitory activity of compounds on cell proliferation was plotted based on cell viability and compound concentration. The IC50 value was fitted by a sigmoidal dose response curve equation Y=100/(1+10^(Log C−Log IC50)), where C was the concentration of compound.
Table 3 summarizes the inhibitory effects of compounds combined with CPT-11 on the growth of human colon cancer cell SW620 (IC50).

ATM enzyme (human) = ATM enzyme (human) (Homo sapiens, UniProt Q13315); assay: ATM kinase assay (HTRF, GST-cMyc-p53 substrate); assay type: biochemical; conditions: for inhibition at 1 µM / inhibition at 0.01 µM / inhibition at 0.1 µM: 0.5 h, read-out: Inh (%) of ATM kinase
Method: In Vitro Inhibition of ATM by N,N-dimethyl-3-(4-(1-(tetrahydro-2H-pyran-4-yl)-[1,2,4]triazolo[4,3-a]quinoxalin-8-yl)phenoxy)propan-1-amine and its Analogues was Determined by ATM Kinase Assay
The reaction was initiated by the addition of a Mg/ATP mixture and incubation for 30 minutes at room temperature, the reaction was quenched by the addition of a stop solution containing EDTA. Finally, the detection buffer containing the d2-labeled anti-GST monoclonal antibody and the europium-labeled anti-phospho p53 (Ser15) antibody was added. The plate was then read in time resolved fluorescence mode and the homogeneous time resolved fluorescence (HTRF) signal was determined according to the equation: HTRF=10000×(Em665nm/Em620nm). Each compound sample was repeated in duplicate. The experiment negative control was all components except of the ATM enzyme and the positive control contained all components. All reactions were quenched by adding EDTA.
ATM kinase inhibition was detected by using the method described above. The curve equation for calculating IC50 value is as follows:
[formula] • wherein, C is the concentration of compound and D is the slope factor.

[2] = tested on: human breast cancer cell MDA-MB-468; assay: MTT assay, growth of MDA-MB-468 cells; assay type: cell-based; conditions: 7 days, MTT
Method: Inhibitory Effects of N,N-dimethyl-3-(4-(1-(tetrahydro-2H-pyran-4-yl)-[1,2,4]triazolo[4,3-a]quinoxalin-8-yl)phenoxy)propan-1-amine and its Analogues on the Growth of Human Breast Cancer Cell MDA-MB-468 were Determined by MTT Assay
as §1, with “MDA-MB-468 cells” for “SW620 cells”, “1:10, respectively:” for “1:10, respectively,”, “was 100” for “was 10”, “medium” for “medium containing 205 nM CPT-11”, “for 7 days (On the fourth day, the medium containing drugs was removed and fresh medium containing drugs was added for continuous cultivation).” for “for 5 days.”, “100 μL” for “100 pt”
Table 4 summarizes the inhibitory effects of compounds on the growth of human breast cancer cell MDA-MB-468 (IC50).

[3] = C 1 μm (final concentration of compound)
[4] = C 0.01 μm (final concentration of compound)
[5] = C 0.1 μm (final concentration of compound)
[6] = Homo sapiens, MDA-MB-468, 168 h

Sequence of ATM enzyme (human) (Q13315 whole entry): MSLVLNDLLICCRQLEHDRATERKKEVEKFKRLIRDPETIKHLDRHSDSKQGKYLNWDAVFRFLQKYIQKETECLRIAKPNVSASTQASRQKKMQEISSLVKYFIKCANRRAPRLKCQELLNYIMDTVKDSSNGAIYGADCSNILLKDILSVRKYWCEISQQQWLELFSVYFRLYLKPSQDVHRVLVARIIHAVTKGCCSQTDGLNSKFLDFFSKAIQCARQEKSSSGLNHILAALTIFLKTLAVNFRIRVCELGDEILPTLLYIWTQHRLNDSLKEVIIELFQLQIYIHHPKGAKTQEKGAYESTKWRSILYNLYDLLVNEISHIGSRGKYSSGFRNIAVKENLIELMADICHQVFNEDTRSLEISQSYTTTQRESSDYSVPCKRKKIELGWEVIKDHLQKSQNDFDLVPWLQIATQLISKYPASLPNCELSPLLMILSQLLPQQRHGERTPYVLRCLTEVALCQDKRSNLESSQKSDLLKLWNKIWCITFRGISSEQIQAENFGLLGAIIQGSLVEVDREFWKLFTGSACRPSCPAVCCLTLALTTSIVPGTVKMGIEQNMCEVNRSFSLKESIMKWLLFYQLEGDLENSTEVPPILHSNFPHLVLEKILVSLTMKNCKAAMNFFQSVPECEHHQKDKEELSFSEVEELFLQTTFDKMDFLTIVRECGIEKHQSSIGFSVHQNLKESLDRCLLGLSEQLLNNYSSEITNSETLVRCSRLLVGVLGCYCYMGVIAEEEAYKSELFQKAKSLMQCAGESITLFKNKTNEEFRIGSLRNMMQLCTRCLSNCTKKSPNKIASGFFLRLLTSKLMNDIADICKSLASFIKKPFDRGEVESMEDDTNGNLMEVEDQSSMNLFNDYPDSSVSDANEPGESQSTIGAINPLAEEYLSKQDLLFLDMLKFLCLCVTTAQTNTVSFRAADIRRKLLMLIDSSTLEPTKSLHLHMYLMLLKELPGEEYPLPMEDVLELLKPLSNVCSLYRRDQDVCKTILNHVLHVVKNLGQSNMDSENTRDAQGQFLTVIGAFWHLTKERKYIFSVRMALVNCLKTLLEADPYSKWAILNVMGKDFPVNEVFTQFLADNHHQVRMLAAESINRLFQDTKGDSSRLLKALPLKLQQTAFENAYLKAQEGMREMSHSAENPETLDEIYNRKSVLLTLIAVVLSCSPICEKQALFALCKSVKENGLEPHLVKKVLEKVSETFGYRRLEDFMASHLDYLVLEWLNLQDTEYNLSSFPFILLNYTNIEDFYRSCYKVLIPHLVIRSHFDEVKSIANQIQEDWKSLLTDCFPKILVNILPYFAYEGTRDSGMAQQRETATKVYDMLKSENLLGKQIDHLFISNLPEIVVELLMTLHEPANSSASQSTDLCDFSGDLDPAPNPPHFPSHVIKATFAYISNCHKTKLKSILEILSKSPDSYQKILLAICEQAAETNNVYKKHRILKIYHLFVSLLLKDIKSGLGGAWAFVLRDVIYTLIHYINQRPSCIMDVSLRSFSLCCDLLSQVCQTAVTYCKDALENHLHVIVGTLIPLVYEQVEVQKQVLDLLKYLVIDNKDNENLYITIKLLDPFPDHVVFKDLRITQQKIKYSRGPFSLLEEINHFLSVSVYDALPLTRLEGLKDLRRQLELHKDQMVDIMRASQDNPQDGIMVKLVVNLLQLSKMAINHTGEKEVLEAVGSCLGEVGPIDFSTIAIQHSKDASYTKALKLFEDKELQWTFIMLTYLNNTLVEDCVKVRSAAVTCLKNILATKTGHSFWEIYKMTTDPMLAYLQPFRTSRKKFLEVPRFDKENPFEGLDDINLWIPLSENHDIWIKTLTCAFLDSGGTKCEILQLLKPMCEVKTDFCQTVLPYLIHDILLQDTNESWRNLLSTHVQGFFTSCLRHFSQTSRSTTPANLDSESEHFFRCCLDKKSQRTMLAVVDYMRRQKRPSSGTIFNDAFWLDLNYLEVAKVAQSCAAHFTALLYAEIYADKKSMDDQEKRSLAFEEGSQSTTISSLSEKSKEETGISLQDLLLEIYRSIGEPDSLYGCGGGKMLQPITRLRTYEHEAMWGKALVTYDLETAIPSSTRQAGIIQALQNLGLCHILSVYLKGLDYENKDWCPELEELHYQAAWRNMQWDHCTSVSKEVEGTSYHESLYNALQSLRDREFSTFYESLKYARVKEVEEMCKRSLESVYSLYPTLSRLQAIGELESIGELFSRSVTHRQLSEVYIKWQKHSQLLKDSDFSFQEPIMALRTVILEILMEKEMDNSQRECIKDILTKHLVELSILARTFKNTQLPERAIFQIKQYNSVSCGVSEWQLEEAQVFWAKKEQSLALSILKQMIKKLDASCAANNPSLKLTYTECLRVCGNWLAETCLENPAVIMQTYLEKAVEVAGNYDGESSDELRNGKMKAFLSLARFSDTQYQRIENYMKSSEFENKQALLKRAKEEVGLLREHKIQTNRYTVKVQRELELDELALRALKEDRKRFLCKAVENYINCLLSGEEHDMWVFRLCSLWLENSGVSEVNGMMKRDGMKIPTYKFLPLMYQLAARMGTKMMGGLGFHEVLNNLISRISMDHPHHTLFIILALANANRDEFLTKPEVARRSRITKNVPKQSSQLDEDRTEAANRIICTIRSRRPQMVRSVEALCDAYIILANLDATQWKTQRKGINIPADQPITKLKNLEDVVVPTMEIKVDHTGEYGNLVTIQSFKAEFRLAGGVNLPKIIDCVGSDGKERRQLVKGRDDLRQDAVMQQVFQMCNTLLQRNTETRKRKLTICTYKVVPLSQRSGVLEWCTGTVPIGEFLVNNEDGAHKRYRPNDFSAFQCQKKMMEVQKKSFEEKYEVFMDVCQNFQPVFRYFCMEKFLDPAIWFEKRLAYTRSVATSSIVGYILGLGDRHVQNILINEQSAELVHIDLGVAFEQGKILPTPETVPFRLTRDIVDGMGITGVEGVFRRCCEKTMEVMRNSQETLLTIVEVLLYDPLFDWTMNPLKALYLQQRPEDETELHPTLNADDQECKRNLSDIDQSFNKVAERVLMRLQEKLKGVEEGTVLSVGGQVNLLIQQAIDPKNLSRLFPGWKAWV

SMILES	IC50 ([1]; Homo sapiens, SW-620, 120 h)	inhibition at 1 µM (ATM enzyme (human); [3])	inhibition at 0.01 µM (ATM enzyme (human); [4])	inhibition at 0.1 µM (ATM enzyme (human); [5])	IC50 [2, 6]	other results
c1ccc(-c2ccc3ncc4nnc(C5CCOCC5)n4c3c2)cc1 [Example 39, 8-phenyl-1-(tetrahydro-2H-pyran-4-yl)-[1,2,4]triazolo[4,3-a]quinoxaline]	> 100000 nM	62%				
C[N+](C)(C)CCCNc1ccc(-c2ccc3ncc4nnc(C5CCOCC5)n4c3c2)cc1 [Example 40, N,N,N-trimethyl-3-((4-(1-(tetrahydro-2H-pyran-4-yl)-[1,2,4]triazolo[4,3-a]quinoxalin-8-yl)phenyl)amino)propan-1-aminium]						IC50 [1]: > 100000 nM; Inh (%) of ATM kinase (ATM enzyme (human); [4]): 33%; Inh (%) of ATM kinase (ATM enzyme (human); [5]): 81%; Inh (%) of ATM kinase (ATM enzyme (human); [3]): 99%
NC1CCN(c2ccc(-c3ccc4ncc5nnc(C6CCOCC6)n5c4c3)cc2)CC1 [Example 41, 1-(4-(1-(tetrahydro-2H-pyran-4-yl)-[1,2,4]triazolo[4,3-a]quinoxalin-8-yl)phenyl)piperidin-4-amine]	456 nM	99%	33%	81%		
CNC1CCN(c2ccc(-c3ccc4ncc5nnc(C6CCOCC6)n5c4c3)cc2)CC1 [Example 42, N-methyl-1-(4-(1-(tetrahydro-2H-pyran-4-yl)-[1,2,4]triazolo[4,3-a]quinoxalin-8-yl)phenyl)piperidin-4-amine]	211 nM	99%	68%	90%		
CCNC1CCN(c2ccc(-c3ccc4ncc5nnc(C6CCOCC6)n5c4c3)cc2)CC1 [Example 43, N-ethyl-1-(4-(1-(tetrahydro-2H-pyran-4-yl)-[1,2,4]triazolo[4,3-a]quinoxalin-8-yl)phenyl)piperidin-4-amine]	357 nM	100%	47%	89%		
C[C@@H]1CN(c2nnc3cnc4ccc(-c5ccc(N6CCC(N(C)C)CC6)c(F)c5)cc4n23)C[C@H](C)N1C [Example 59, 1-(2-fluoro-4-(1-((3S,5R)-3,4,5-trimethylpiperazin-1-yl)-[1,2,4]triazolo[4,3-a]quinoxalin-8-yl)phenyl)-N,N-dimethylpiperidin-4-amine]	14.4 nM				6.61 nM	
CN(C)C1CCN(c2ccc(-c3ccc4ncc5nnc(CN6CCOCC6)n5c4c3)cc2)CC1 [Example 65, N,N-dimethyl-1-(4-(1-(morpholinomethyl)-[1,2,4]triazolo[4,3-a]quinoxalin-8-yl)phenyl)piperidin-4-amine]	402 nM	100%	37%	80%		
CN(C)CCCOc1ccc(-c2cc3c(cn2)ncc2nnc(C4CCOCC4)n23)cc1 [Example 69, N,N-dimethyl-3-(4-(1-(tetrahydro-2H-pyran-4-yl)pyrido[3,4-e][1,2,4]triazolo[4,3-a]pyrazin-8-yl)phenoxy)propan-1-amine]						IC50 [2]: > 10000 nM
CN(C)C1CCN(c2ccc(-c3ccc4ncc5nnc(CN6CCOCC6)n5c4n3)cc2)CC1 [Example 78, N,N-dimethyl-1-(4-(9-(morpholinomethyl)pyrido[3,2-e][1,2,4]triazolo[4,3-a]pyrazin-2-yl)phenyl)piperidin-4-amine]	664 nM	98%	67%	94%		
CN(C)CCCOc1ccc(-c2ccc3ncc4nnc(CN5CCOCC5)n4c3n2)cc1 [Example 79, N,N-dimethyl-3-(4-(9-(morpholinomethyl)pyrido[3,2-e][1,2,4]triazolo[4,3-a]pyrazin-2-yl)phenoxy)propan-1-amine]	1980 nM	94%	21%	62%		
C[C@@H]1CN(c2nnc3cnc4ccc(-c5ccc(OCCCN(C)C)cc5)nc4n23)C[C@H](C)N1C [Example 80, N,N-dimethyl-3-(4-(9-((3S,5R)-3,4,5-trimethylpiperazin-1-yl)pyrido[3,2-e][1,2,4]triazolo[4,3-a]pyrazin-2-yl)phenoxy)propan-1-amine]	164 nM				271 nM	
C[C@@H]1CN(c2nnc3cnc4ccc(-c5ccc(OCCCN(C)C)c(F)c5)nc4n23)C[C@H](C)N1C [Example 81, 3-(2-fluoro-4-(9-((3S,5R)-3,4,5-trimethylpiperazin-1-yl)pyrido[3,2-e][1,2,4]triazolo[4,3-a]pyrazin-2-yl)phenoxy)-N,N-dimethylpropan-1-amine]	138 nM				201 nM	
C[C@@H]1CN(c2nnc3cnc4ccc(-c5ccc(OCCCN(C)C)c(Cl)c5)nc4n23)C[C@H](C)N1C [Example 82, 3-(2-chloro-4-(9-((3S,5R)-3,4,5-trimethylpiperazin-1-yl)pyrido[3,2-e][1,2,4]triazolo[4,3-a]pyrazin-2-yl)phenoxy)-N,N-dimethylpropan-1-amine]	189 nM				200 nM	
C[C@@H]1CN(c2nnc3cnc4ccc(-c5ccc(OCCCN(C)C)c(C(F)(F)F)c5)nc4n23)C[C@H](C)N1C [Example 83, N,N-dimethyl-3-(2-(trifluoromethyl)-4-(9-((3S,5R)-3,4,5-trimethylpiperazin-1-yl)pyrido[3,2-e][1,2,4]triazolo[4,3-a]pyrazin-2-yl)phenoxy)propan-1-amine]	148 nM				73.4 nM	
C[C@@H]1CN(c2nnc3cnc4ccc(-c5ccc(N6CCC(N(C)C)CC6)cc5)nc4n23)C[C@H](C)N1C [Example 84, N,N-dimethyl-1-(4-(9-((3S,5R)-3,4,5-trimethylpiperazin-1-yl)pyrido[3,2-e][1,2,4]triazolo[4,3-a]pyrazin-2-yl)phenyl)piperidin-4-amine]	70.5 nM				246 nM	
C[C@@H]1CN(c2nnc3cnc4ccc(-c5ccc(N6CCC(N(C)C)CC6)c(F)c5)nc4n23)C[C@H](C)N1C [Example 85, 1-(2-fluoro-4-(9-((3S,5R)-3,4,5-trimethylpiperazin-1-yl)pyrido[3,2-e][1,2,4]triazolo[4,3-a]pyrazin-2-yl)phenyl)-N,N-dimethylpiperidin-4-amine]	41.3 nM				22.2 nM	
